We go through 19 compounds from PubChem BioAssay AID330 (DTP/NCI, 2004).

“And” between values parts separate entries of the source, which are not always exact repeats. Equal values may be shown once. Inconclusive results and toxic doses are left out.

The subject of the assay is P388 leukemia ip, CD2F1 mice, survival T/C. Briefly: NCI In Vivo Anticancer Drug Screen. Data for tumor model P388 Leukemia (intraperitoneal) in CD2F1 (CDF1) mice. Particulars: endpoint: median survival time, higher = longer survival. A digest of the protocol: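 Mice carrying the transplanted tumor received test compound or vehicle. Survival was recorded in each group, and the value is the treated-group measurement divided by that of the vehicle-treated control group.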

Where [1] appears, read: dose: 12.5 mg/kg/injection, schedule: Q01DX009 (ip), vehicle: saline with Tween-80.
Setting [2] is: dose: 25.0 mg/kg/injection, schedule: Q01DX009 (ip), vehicle: saline with Tween-80.
[3] abbreviates: dose: 50.0 mg/kg/injection, schedule: Q01DX009 (ip), vehicle: saline with Tween-80.
Where [4] appears, read: dose: 100.0 mg/kg/injection, schedule: Q01DX009 (ip), vehicle: saline with Tween-80.
[5] abbreviates: dose: 60.0 mg/kg/injection, schedule: Q01DX005 (ip), vehicle: saline with Tween-80.
Setting [6] is: dose: 120.0 mg/kg/injection, schedule: Q01DX005 (ip), vehicle: saline with Tween-80.
Where [7] appears, read: dose: 240.0 mg/kg/injection, schedule: Q01DX005 (ip), vehicle: saline with Tween-80.
The mark [8] stands for this setting: dose: 50.0 mg/kg/injection, schedule: Q01DX005 (ip), vehicle: saline with Tween-80.
Where [9] appears, read: dose: 100.0 mg/kg/injection, schedule: Q01DX005 (ip), vehicle: saline with Tween-80.
Where [10] appears, read: dose: 200.0 mg/kg/injection, schedule: Q01DX005 (ip), vehicle: saline with Tween-80.
Where [11] appears, read: dose: 100.0 mg/kg/injection, schedule: Q01DX001 (ip), vehicle: saline with Tween-80.
The mark [12] stands for this setting: dose: 200.0 mg/kg/injection, schedule: Q01DX001 (ip), vehicle: saline with Tween-80.
Setting [13] is: dose: 400.0 mg/kg/injection, schedule: Q01DX001 (ip), vehicle: saline with Tween-80.

With `Nc1ccccc1C(=O)N/N=C\c1ccc(O)cc1`, the T/C is 94 % of control under setting [1]; 89 % of control and 91 % of control under setting [2]; 101 % of control and 94 % of control under setting [3]; 99 % of control and 87 % of control under setting [4].
Consider `COC(=O)C(=O)c1c(C(=O)OC)nc2nnc(N)n2c1-c1ccc(OC)cc1`, for which the T/C reads like this: under setting [5], 100 % of control; under setting [6], 107 % of control; under setting [7], 96 % of control.
For `Oc1ccc2ccccc2c1N=Nc1nn[nH]n1`, the T/C reads like this: under setting [8], 99 % of control; under setting [9], 106 % of control.
For the compound `CCN(CC)CCOC(=O)C(c1ccccc1)C1(O)CCCCC1` (stereo unspecified), the T/C by setting is: (dose: 50.0 mg/kg/injection, schedule: Q01DX005 (ip), vehicle: saline) 100 % of control; (dose: 100.0 mg/kg/injection, schedule: Q01DX005 (ip), vehicle: saline) 107 % of control.
In the case of `CCC(=O)OC1CC2(C)C(=CC1=O)CCC1C2CCC2(C)C(OC(=O)CC)CCC12` (stereo unspecified), the T/C under setting [3] was 100 % of control; the T/C under setting [4] was 95 % of control; the T/C (dose: 100.0 mg/kg/injection, schedule: Q04DX003 (ip), vehicle: saline with Tween-80) is 100 % of control; the T/C (dose: 200.0 mg/kg/injection, schedule: Q01DX009 (ip), vehicle: saline with Tween-80) is 100 % of control; the T/C (dose: 200.0 mg/kg/injection, schedule: Q04DX003 (ip), vehicle: saline with Tween-80) was 100 % of control.
As for `CC1(C)N=C(N)N=C(N)N1c1cccc(OCCCOc2ccccc2)c1`, the T/C by setting is: (dose: 12.5 mg/kg/injection, schedule: Q01DX001 (ip), vehicle: Klucel (hydroxypropylcellulose) (HPC)) 101 % of control; (dose: 25.0 mg/kg/injection, schedule: Q01DX001 (ip), vehicle: Klucel (hydroxypropylcellulose) (HPC)) 100 % of control; (dose: 50.0 mg/kg/injection, schedule: Q01DX001 (ip), vehicle: Klucel (hydroxypropylcellulose) (HPC)) 102 % of control.
With `Cc1ccc(N2CC3CC4(C)C=CC3(C2)O4)cc1` (stereo unspecified), the T/C was 103 % of control under setting [5], 111 % of control under setting [6] and 98 % of control under setting [7].
`CC1(C)N=C(N)N=C(N)N1c1cccc(CSc2ccccc2)c1`: the T/C (dose: 7.5 mg/kg/injection, schedule: Q01DX005 (ip), vehicle: Klucel (hydroxypropylcellulose) (HPC)) was 98 % of control; the T/C (dose: 15.0 mg/kg/injection, schedule: Q01DX005 (ip), vehicle: Klucel (hydroxypropylcellulose) (HPC)) was 103 % of control; the T/C (dose: 30.0 mg/kg/injection, schedule: Q01DX005 (ip), vehicle: Klucel (hydroxypropylcellulose) (HPC)) was 103 % of control.
Take `O=C(NC1CC(c2ccccc2)(c2ccccc2)OC1=O)c1ccccc1` (stereo unspecified): the T/C by setting is: under setting [3], 100 % of control; under setting [4], 86 % of control.
Turning to `CS(=O)(=O)O`, the T/C reads like this: (dose: 50.0 mg/kg/injection, schedule: Q01DX009 (ip), vehicle: saline) 100 % of control; (dose: 100.0 mg/kg/injection, schedule: Q01DX009 (ip), vehicle: saline) 110 % of control; (dose: 200.0 mg/kg/injection, schedule: Q01DX009 (ip), vehicle: saline) 108 % of control.
In the case of `O=C1Nc2ccccc2S/C1=C/c1ccccc1`, the T/C is, setting by setting: (dose: 50.0 mg/kg/injection, schedule: Q01DX009 (ip), vehicle: gum acacia) 109 % of control; (dose: 100.0 mg/kg/injection, schedule: Q01DX009 (ip), vehicle: gum acacia) 113 % of control; (dose: 200.0 mg/kg/injection, schedule: Q01DX009 (ip), vehicle: gum acacia) 97 % of control.
Take `CCCCOC1=NC2C(=O)NCC2CO1` (stereo unspecified): the T/C was 97 % of control under setting [8], 94 % of control under setting [9] and 97 % of control under setting [10].
With `CN(C)CCCN1c2ccccc2CCc2ccccc21`, the T/C by setting is: under setting [5], 115 % of control; under setting [6], 109 % of control.
As for `CC(NCCCCCCNC(C)C(=O)O)C(=O)O` (stereo unspecified), the T/C runs as follows: under setting [8], 105 % of control; under setting [9], 100 % of control; under setting [10], 117 % of control.
As to `Cc1cc(Cl)ccc1-n1nc(C)c2c(N)nc(N)nc21`, the T/C is 109 % of control (dose: 100.0 mg/kg/injection, schedule: Q04DX003 (ip), vehicle: Klucel (hydroxypropylcellulose) (HPC)) and 102 % of control (dose: 200.0 mg/kg/injection, schedule: Q04DX003 (ip), vehicle: Klucel (hydroxypropylcellulose) (HPC)).
For the compound `COc1cccc2c1C(=O)c1c(O)c3c(c(O)c1C2=O)C[C@@](O)(/C(C)=N/NC(=O)c1ccc(O)cc1)C[C@@H]3OC1CC(N)C(O)C(C)O1` (stereo partly specified), the T/C was 115 % of control (dose: 0.12 mg/kg/injection, schedule: Q01DX009 (ip), vehicle: water); 111 % of control (dose: 0.25 mg/kg/injection, schedule: Q01DX009 (ip), vehicle: water); 152 % of control and 157 % of control (dose: 0.5 mg/kg/injection, schedule: Q01DX009 (ip), vehicle: water); 160 % of control (dose: 1.0 mg/kg/injection, schedule: Q01DX009 (ip), vehicle: water); 160 % of control and 180 % of control (dose: 2.0 mg/kg/injection, schedule: Q01DX009 (ip), vehicle: water); 161 % of control and 171 % of control (dose: 4.0 mg/kg/injection, schedule: Q01DX009 (ip), vehicle: water). Besides, the T/C reads like this: (dose: 10.0 mg/kg/injection, schedule: Q01DX001 (ip), vehicle: water) 174 % of control; (dose: 16.0 mg/kg/injection, schedule: Q01DX009 (ip), vehicle: water) 111 % of control; (dose: 20.0 mg/kg/injection, schedule: Q01DX001 (ip), vehicle: water) 117 % of control.
For the compound `COc1cc(N=Nc2cccc(C(=O)O)c2)ccc1N(CCCl)CCCl`, the T/C (dose: 6.25 mg/kg/injection, schedule: Q01DX009 (ip), vehicle: saline with Tween-80) is 106 % of control; the T/C under setting [1] was 121 % of control; the T/C under setting [2] was 152 % of control.
In the case of `O=C1CSC(c2ccccc2O)N1c1nc(-c2ccc(Cl)cc2)cs1` (stereo unspecified), the T/C runs as follows: under setting [11], 100 % of control; under setting [12], 98 % of control; under setting [13], 87 % of control.
The matching figures for `Brc1ccc2c3c(ccc2c1)OCCOCCOCCOCCOCCOc1ccc2cc(Br)ccc2c1-3`: 104 % of control, 107 % of control and 104 % of control.
